From patent US5945440A, “Indolocarbazole imides and the use thereof” (priority 1992, dated 1999)

What was measured:
protein kinases = conditions: Bio/Technology, 1990, 8, 132-135; cited from earlier work
[1] = literature / other filings; cited from earlier work
human tumour cells [2] = assay: colony test, human tumour cells in soft agar (tumour types in general); type: cell-based; conditions: certain tumour types
Experimental: (§1) For this test, human tumour cells are kept as solid tumour by passage on the nude mouse. For the test, an individual cell suspension is prepared and the cells then plated out in dishes containing soft agar. Under these conditions, the tumour cells multiply and form colonies.

protein kinase C = assay: inhibition of protein kinase C, enzyme test; type: biochemical; conditions: for IC50: read-out: inhibition of the protein kinases, C-kinase IC50
Experimental: In order to ascertain whether it is a question of a selective inhibition of MLC kinase, the compounds were also investigated in other enzyme tests for protein kinase, including tests for protein kinase C. The results from the PKC test are also given in the following Table I. Furthermore, the Table contains selectivity factors which were calculated by the determination of the ratios of the IC50 values.

[3] = tested on: human tumour cells, ovarian 3; assay: colony formation of human tumour cells: ovarian 3; type: cell-based
Experimental: as §1

[4] = tested on: human tumour cells, colorectal 1; assay: colony formation of human tumour cells: colorectal 1; type: cell-based
Experimental: as §1

[5] = target: T1, MLC kinase (myosin light-chain kinase) (Gallus gallus, UniProt P11799); assay: inhibition of MLC kinase, in vitro enzyme test (32P phosphate incorporation); type: biochemical, chicken (stomach); conditions: for IC50: 1 nM MLC kinase, 250 μM ATP, pH 7.2, 20 minutes at 30° C., read-out: inhibition of the protein kinases, MLC-kinase IC50; for ratio of IC50 C-kinase/IC50 MLC-kinase: selectivity factor calculated from the IC50 values; for MLC kinase inhibition, in words: potency and selectivity vs protein kinase C
T1 construct: MLC kinase was purified from chicken stomach; from tissue; host or cells: chicken stomach (gizzard smooth muscle)
T1 sequence (P11799 935-1906): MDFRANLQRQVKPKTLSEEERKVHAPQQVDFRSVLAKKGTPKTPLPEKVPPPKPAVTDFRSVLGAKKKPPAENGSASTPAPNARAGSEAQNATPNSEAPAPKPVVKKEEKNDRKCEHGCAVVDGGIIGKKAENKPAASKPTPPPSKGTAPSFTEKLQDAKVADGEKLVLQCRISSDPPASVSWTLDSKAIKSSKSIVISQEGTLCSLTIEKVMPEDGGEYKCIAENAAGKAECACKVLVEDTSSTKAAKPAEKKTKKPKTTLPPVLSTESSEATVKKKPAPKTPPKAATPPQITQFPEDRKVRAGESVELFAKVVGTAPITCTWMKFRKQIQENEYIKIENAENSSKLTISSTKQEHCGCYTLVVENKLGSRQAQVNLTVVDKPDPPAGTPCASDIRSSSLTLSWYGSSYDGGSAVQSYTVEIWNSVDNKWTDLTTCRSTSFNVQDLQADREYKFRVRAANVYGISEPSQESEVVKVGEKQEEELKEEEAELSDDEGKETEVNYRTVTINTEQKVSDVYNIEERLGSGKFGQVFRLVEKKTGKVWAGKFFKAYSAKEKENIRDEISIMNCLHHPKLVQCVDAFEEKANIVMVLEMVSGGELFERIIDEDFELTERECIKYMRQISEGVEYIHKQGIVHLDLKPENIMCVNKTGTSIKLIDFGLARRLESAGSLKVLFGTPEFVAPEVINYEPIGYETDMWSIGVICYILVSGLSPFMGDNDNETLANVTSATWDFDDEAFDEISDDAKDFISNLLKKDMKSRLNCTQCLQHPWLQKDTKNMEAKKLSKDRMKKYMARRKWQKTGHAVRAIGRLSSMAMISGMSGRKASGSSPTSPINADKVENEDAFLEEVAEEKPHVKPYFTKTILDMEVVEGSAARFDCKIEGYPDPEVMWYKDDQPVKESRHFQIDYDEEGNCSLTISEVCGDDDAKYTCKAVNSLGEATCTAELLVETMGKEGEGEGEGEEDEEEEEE
Experimental: Inhibition of the enzyme MLC kinase (EC 3.6.1.3; kinase of the light myosin chain; myosin light-chain kinase).
The inhibition of MLC kinase was measured in an in vitro enzyme test.
The reaction was initiated by the addition of 1 nM MLC kinase. After incubation for 20 minutes at 30° C., the reaction was stopped with TCA and the samples then filtered off. The phosphate incorporation took place by means of Cerenkov counting of the filter.

[6] = tested on: human tumour cells, colon; assay: colony formation of human tumour cells: colon; type: cell-based
Experimental: as §1

[7] = tested on: human tumour cells, melanoma 1; assay: colony formation of human tumour cells: melanoma 1; type: cell-based
Experimental: as §1

[8] = tested on: human tumour cells, gastric 1; assay: colony formation of human tumour cells: gastric 1; type: cell-based
Experimental: as §1

HIV [9] = assay: phorbol ester-induced HIV reactivation, HIV-induced syncytia formation with indicator cell; type: cell-based; conditions: Human immunodeficiency virus 1; U1 cells, PMA stimulation; average value; n = 2; read-out: inhibition of the HIV production IC50, syncytia formation
Experimental: (§2) In the case of the establishment of this hypothesis, use was made of the promonocytic cell line U1.
(§3) Without stimulation, no formation of HIV can be measured in these cells but, after 15 minutes stimulation with the phorbol ester PMA, it results in a massive production of HIV.
(§4) Some of the PKC inhibitors according to the present invention were investigated in this model. As a measure for the HIV production, either with the help of an ELISA test there was determined the viral protein p24 or with the help of an indicator cell, there was measured the HIV-induced formation of syncytia (giant cells produced by the fusion of individual cells).

[10] = tested on: human tumour cells, gastric 2; assay: colony formation of human tumour cells: gastric 2; type: cell-based
Experimental: as §1

HIV [11] = assay: HIV production in PMA-stimulated promonocytic U1 cells (both methods); type: cell-based; conditions: for anti-HIV action, in words: both test methods
Experimental: as §2, §3, §4

[12] = tested on: human tumour cells, pancreas 1; assay: colony formation of human tumour cells: pancreas 1; type: cell-based
Experimental: as §1

[13] = tested on: human tumour cells, prostata 1; assay: colony formation of human tumour cells: prostata 1; type: cell-based
Experimental: as §1

HIV [14] = assay: phorbol ester-induced HIV reactivation, viral protein p24 by ELISA; type: cell-based; conditions: Human immunodeficiency virus 1; U1 cells, PMA stimulation; average value ± SD; n = 3; read-out: inhibition of the HIV production IC50, p24 expression
Experimental: as §2, §3, §4

[15] = tested on: human tumour cells, ovarian 1; assay: colony formation of human tumour cells: ovarian 1; type: cell-based
Experimental: as §1

[16] = tested on: human tumour cells, lung (large cell); assay: colony formation of human tumour cells: lung (large cell); type: cell-based
Experimental: as §1

[17] = tested on: human tumour cells, lung (small cell 1); assay: colony formation of human tumour cells: lung (small cell 1); type: cell-based
Experimental: as §1

[18] = tested on: promonocytic cell line U1; assay: control experiments for cytotoxic action in the HIV model; type: cell-based
[19] = tested on: human tumour cells, melanoma 2; assay: colony formation of human tumour cells: melanoma 2; type: cell-based
Experimental: as §1

[20] = tested on: human tumour cells, melanoma 3; assay: colony formation of human tumour cells: melanoma 3; type: cell-based
Experimental: as §1

[21] = tested on: human tumour cells, ovarian 2; assay: colony formation of human tumour cells: ovarian 2; type: cell-based
Experimental: as §1

[22] = tested on: narcotised, spontaneously hypertensive rat (SHR); assay: anti-hypertensive action in narcotised spontaneously hypertensive rats, i.v.; type: in vivo; conditions: for reduction of the average arterial blood pressure / reduction of the heart frequency: 60 minutes after administration, average ± SD; for anti-hypertensive action, in words / influencing of the heart frequency, in words: i.v.
Experimental: As test model, there was used the narcotised, spontaneously hypertensive rat (SHR). After intravenous administration of the inhibitor of MLC kinase, in each case 60 minutes after the administration of the compound, there were found the reductions of the average arterial blood pressure set out in the following Table 2.

human tumour cells [23] = conditions: general statement on the colony test; cited from earlier work

## CO[C@H]1[C@H](O)[C@@H](O)[C@H](n2c3c(Cl)cccc3c3c4c(c5c6cccc(Cl)c6[nH]c5c32)C(=O)NC4=O)O[C@@H]1CO [rebeccamycin]
Protein kinases
  inhibition of protein kinases, in words: do not inhibit protein kinases
[1]
  anti-tumour action, in words: anti-tumour action

## CN(C)CCCn1c2ccc(O)cc2c2c3c(c4c5cc(O)ccc5[nH]c4c21)C(=O)NC3=O [Example 2c]
Human tumour cells [2]
  inhibition of tumour cell growth, in words: the growth of the tumour cells can be inhibited depending upon the concentration
Protein kinase C
  IC50: 14 nM
[3]
  IC50: < 100 nM
[3]; 10^-5 M
  inhibition at 10 µM: 99%
[3]; 10^-6 M
  inhibition at 1 µM: 94%
[3]; 10^-7 M
  inhibition at 0.1 µM: 74%
[4]
  IC50: 6000 nM
[4]; 10^-5 M
  inhibition at 10 µM: 62%
[4]; 10^-6 M
  inhibition at 1 µM: 8%
[4]; 10^-7 M
  inhibition at 0.1 µM: 0%
[5]
  IC50: 6.1 nM
  ratio of IC50 C-kinase/IC50 MLC-kinase: 2.3
[6]
  IC50: 1700 nM
[6]; 10^-5 M
  inhibition at 10 µM: 94%
[6]; 10^-6 M
  inhibition at 1 µM: 37%
[6]; 10^-7 M
  inhibition at 0.1 µM: 8%
[7]
  IC50: 120 nM
[7]; 10^-5 M
  inhibition at 10 µM: 89%
[7]; 10^-6 M
  inhibition at 1 µM: 81%
[7]; 10^-7 M
  inhibition at 0.1 µM: 48%
[8]
  IC50: 1200 nM
[8]; 10^-5 M
  inhibition at 10 µM: 99%
[8]; 10^-6 M
  inhibition at 1 µM: 47%
[8]; 10^-7 M
  inhibition at 0.1 µM: 29%
HIV [9]
  IC50: 29 nM
[10]
  IC50: < 100 nM
[10]; 10^-5 M
  inhibition at 10 µM: 77%
[10]; 10^-6 M
  inhibition at 1 µM: 66%
[10]; 10^-7 M
  inhibition at 0.1 µM: 65%
HIV [11]
  anti-HIV action, in words: an anti-HIV action could be demonstrated
[12]
  IC50: 1500 nM
[12]; 10^-5 M
  inhibition at 10 µM: 83%
[12]; 10^-6 M
  inhibition at 1 µM: 44%
[12]; 10^-7 M
  inhibition at 0.1 µM: 38%
[13]
  IC50: 200 nM
[13]; 10^-5 M
  inhibition at 10 µM: 98%
[13]; 10^-6 M
  inhibition at 1 µM: 99%
[13]; 10^-7 M
  inhibition at 0.1 µM: 29%
HIV [14]
  IC50: 36 ± 15 nM
[15]
  IC50: 200 nM
[15]; 10^-5 M
  inhibition at 10 µM: 96%
[15]; 10^-6 M
  inhibition at 1 µM: 75%
[15]; 10^-7 M
  inhibition at 0.1 µM: 40%
[16]
  IC50: < 100 nM
[16]; 10^-5 M
  inhibition at 10 µM: 100%
[16]; 10^-6 M
  inhibition at 1 µM: 100%
[16]; 10^-7 M
  inhibition at 0.1 µM: 97%
[17]
  IC50: < 100 nM
[17]; 10^-5 M
  inhibition at 10 µM: 97%
[17]; 10^-6 M
  inhibition at 1 µM: 97%
[17]; 10^-7 M
  inhibition at 0.1 µM: 82%
[18]
  cytotoxic action as cause of the anti-HIV action, in words: the anti-HIV action did not come about due to a cytotoxic action
[19]
  IC50: < 100 nM
[19]; 10^-5 M
  inhibition at 10 µM: 97%
[19]; 10^-6 M
  inhibition at 1 µM: 99%
[19]; 10^-7 M
  inhibition at 0.1 µM: 90%
[20]
  IC50: 210 nM
[20]; 10^-5 M
  inhibition at 10 µM: 73%
[20]; 10^-6 M
  inhibition at 1 µM: 76%
[20]; 10^-7 M
  inhibition at 0.1 µM: 38%
[21]
  IC50: 2600 nM
[21]; 10^-5 M
  inhibition at 10 µM: 75%
[21]; 10^-6 M
  inhibition at 1 µM: 33%
[21]; 10^-7 M
  inhibition at 0.1 µM: 5%

## CN(C)CC(O)Cn1c2ccccc2c2c3c(c4c5ccccc5n(C)c4c21)C(=O)NC3=O (racemic) [Example 10, (±)-12-(3-Dimethylamino-2-hydroxy-1-propyl)-6,7,12,13-tetrahydro-13-methyl-5,7-dioxo-5H-indolo[2,3-a]pyrrolo-[3,4-c]carbazole]
Human tumour cells [2]
  inhibition of tumour cell growth, in words: the growth of the tumour cells can be inhibited depending upon the concentration
Protein kinase C
  IC50: 21 nM
[5]
  ratio of IC50 C-kinase/IC50 MLC-kinase: 0.2

## COc1ccc2[nH]c3c4[nH]c5ccc(OC)cc5c4c4c(c3c2c1)C(=O)NC4=O [Example 11d, 6,7,12,13-tetrahydro-3,9-dimethoxy-5,7-dioxo-5H-indolo[2,3-a]pyrrolo[3,4-c]carbazole]
Protein kinase C
  IC50: > 10000 nM
[5]
  IC50: 21 nM
  MLC kinase inhibition, in words: potent and selective inhibitors of MLC kinase
  ratio of IC50 C-kinase/IC50 MLC-kinase: > 476
[22]; 3 mg/kg i.v.
  reduction of the average arterial blood pressure: 16 ± 3%
  reduction of the heart frequency: 6 ± 2%
[22]; 10 mg/kg i.v.
  reduction of the average arterial blood pressure: 35 ± 5%
  reduction of the heart frequency: 10 ± 3%
[22]
  anti-hypertensive action, in words: dosage-dependent anti-hypertensive action could be demonstrated
  influencing of the heart frequency, in words: scarcely observable

## COc1cccc2c1C(=O)c1c(O)c3c(c(O)c1C2=O)C[C@@](O)(C(=O)CO)C[C@@H]3O[C@H]1C[C@H](N)[C@H](O)[C@H](C)O1 [adriamycin]
Human tumour cells [23]
  prevention of colony formation, in words: able to prevent this colony formation

## CC(C)N(CCCn1c2ccccc2c2c3c(c4c5ccccc5[nH]c4c21)C(=O)NC3=O)C(C)C [Example 7g, 12-(3-diisopropylaminopropyl)-6,7,12,13-tetrahydro-5,7-dioxo-5H-indolo[2,3-a]pyrrolo[3,4-c]carbazole]
Human tumour cells [2]
  inhibition of tumour cell growth, in words: the growth of the tumour cells can be inhibited depending upon the concentration
Protein kinase C
  IC50: 42 nM
[5]
  IC50: 110 nM
  ratio of IC50 C-kinase/IC50 MLC-kinase: 0.4

## CC1CNCCN1S(=O)(=O)c1cccc2cnccc12 (stereo not shown) [Example H-7, reference compound]
HIV [11]; 1 hour before PMA stimulation and 48 hours after
  suppression of HIV production, in words: the production of HIV can be completely suppressed

## O=C1NC(=O)c2c1c1c3cccc(O)c3[nH]c1c1[nH]c3c(O)cccc3c21 [BE-13193C]
[1]
  anti-tumour action, in words: antitumour action

## NC(=O)CCn1c2ccccc2c2c3c(c4c5ccccc5[nH]c4c21)C(=O)NC3=O [Example 5, 12-(2-Carbamoylethyl)-6,7,12,13-tetrahydro-5,7-dioxo-5H-indolo[2,3-a]pyrrolo[3,4-c]carbazole]
Protein kinase C
  IC50: 87 nM
[5]
  IC50: 3.7 nM
  MLC kinase inhibition, in words: potent and selective inhibitors of MLC kinase
  ratio of IC50 C-kinase/IC50 MLC-kinase: 24
[22]; 1 mg/kg i.v.
  reduction of the average arterial blood pressure: 15 ± 5%
  reduction of the heart frequency: 3 ± 3%
[22]; 3 mg/kg i.v.
  reduction of the average arterial blood pressure: 23 ± 3%
  reduction of the heart frequency: 7 ± 4%
[22]; 10 mg/kg i.v.
  reduction of the average arterial blood pressure: 40 ± 8%
  reduction of the heart frequency: 4 ± 3%
[22]
  anti-hypertensive action, in words: dosage-dependent anti-hypertensive action could be demonstrated
  influencing of the heart frequency, in words: scarcely observable

## COc1ccc2c(c1)c1c3c(c4c5ccccc5n(C)c4c1n2CCC#N)C(=O)NC3=O [Example 1, 13-(2-Cyanoethyl)-6,7,12,13-tetrahydro-3-methoxy-12-methyl-5,7-dioxo-5H-indolo[2,3-a]pyrrolo[3,4-c]-carbazole]
Protein kinase C; potency and selectivity vs MLC kinase
  protein kinase C inhibition, in words: potent and selective protein kinase C inhibitor
Protein kinase C
  IC50: 1.5 nM
[5]
  IC50: 200 nM
  ratio of IC50 C-kinase/IC50 MLC-kinase: 0.008
HIV [9]
  IC50: 28 nM
HIV [11]
  anti-HIV action, in words: an anti-HIV action could be demonstrated
HIV [14]
  IC50: 118 ± 98 nM
[18]
  cytotoxic action as cause of the anti-HIV action, in words: the anti-HIV action did not come about due to a cytotoxic action
